# Test results reported in patent publication US7166726B2, “Aryl substituted 3,4-dihydroanthracene derivatives having retinoid antagonist or retinoid inverse agonist type biological activity” (Allergan, Inc., priority 1996, dated 2007).
# Assays:
# [1] = biological target: T1, RARα (Homo sapiens, UniProt P10276); experiment: Ligand binding assay, RARα
# T1 sequence (P10276 1-462): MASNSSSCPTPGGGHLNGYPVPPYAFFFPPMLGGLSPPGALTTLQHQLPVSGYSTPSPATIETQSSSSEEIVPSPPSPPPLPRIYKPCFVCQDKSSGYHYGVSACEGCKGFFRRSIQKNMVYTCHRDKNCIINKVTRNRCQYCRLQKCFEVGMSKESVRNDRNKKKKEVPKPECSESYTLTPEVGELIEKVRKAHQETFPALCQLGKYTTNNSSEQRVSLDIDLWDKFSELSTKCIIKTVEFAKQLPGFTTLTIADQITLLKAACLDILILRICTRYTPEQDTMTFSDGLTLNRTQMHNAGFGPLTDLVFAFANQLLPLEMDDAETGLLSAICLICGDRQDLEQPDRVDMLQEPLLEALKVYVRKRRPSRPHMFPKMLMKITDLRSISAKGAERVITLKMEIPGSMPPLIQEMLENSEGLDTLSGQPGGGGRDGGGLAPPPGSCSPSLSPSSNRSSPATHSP
# Source text: (§1) A holoreceptor transactivation assay and a ligand binding assay which measure the antagonist/agonist like activity of the compounds of the invention, or their ability to bind to the several retinoid receptor subtypes, respectively, are described in published PCT Application No. WO WO93/11755 (particularly on pages 30–33 and 37–41) published on Jun. 24, 1993, the specification of which is also incorporated herein by reference. A description of the holoreceptor transactivation assay is also provided below.
# (§2) CV1 cells (5,000 cells/well) were transfected with an RAR reporter plasmid MTV-TREp-LUC (50 ng) along with one of the RAR expression vectors (10 ng) in an automated 96-well format by the calcium phosphate procedure of Heyman et al. Cell 68, 397–406, (1992). For RXRα and RXRγ transactivation assays, an RXR-responsive reporter plasmid CRBPII-tk-LUC (50 ng) along with the appropriate RXR expression vectors (10 ng) was used substantially as described by Heyman et al. above, and Allegretto et al. J. Biol. Chem. 268, 26625–26633. For RXRβ transactivation assays, an RXR-responsive reporter plasmid CPRE-tk-LUC ([…]) along with RXRβ expression vector ([…]) was used as described in above. These reporters contain DRI elements from human CRBPII and certain DRI elements from promoter, respectively. […]
# [2] = biological target: T2, RARβ (Homo sapiens, UniProt P10826); experiment: Ligand binding assay, RARβ
# T2 sequence (P10826 1-455): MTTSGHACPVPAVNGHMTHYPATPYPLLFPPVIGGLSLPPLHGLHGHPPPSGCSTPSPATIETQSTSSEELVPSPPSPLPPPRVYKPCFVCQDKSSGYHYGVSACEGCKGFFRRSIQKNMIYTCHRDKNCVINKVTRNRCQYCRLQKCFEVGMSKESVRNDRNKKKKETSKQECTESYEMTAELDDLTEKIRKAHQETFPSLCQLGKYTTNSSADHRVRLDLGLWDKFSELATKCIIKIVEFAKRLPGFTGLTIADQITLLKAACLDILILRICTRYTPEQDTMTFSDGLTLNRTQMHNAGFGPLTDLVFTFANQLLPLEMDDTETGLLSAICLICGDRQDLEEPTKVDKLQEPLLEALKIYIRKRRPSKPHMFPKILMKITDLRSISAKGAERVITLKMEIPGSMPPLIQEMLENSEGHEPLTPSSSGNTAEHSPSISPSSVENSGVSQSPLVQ
# Source text: as §1, §2
# [3] = biological target: T3, RARγ (Homo sapiens, UniProt P13631); experiment: Ligand binding assay, RARγ; details: read-out: Kd TATγ
# T3 sequence (P13631 1-454): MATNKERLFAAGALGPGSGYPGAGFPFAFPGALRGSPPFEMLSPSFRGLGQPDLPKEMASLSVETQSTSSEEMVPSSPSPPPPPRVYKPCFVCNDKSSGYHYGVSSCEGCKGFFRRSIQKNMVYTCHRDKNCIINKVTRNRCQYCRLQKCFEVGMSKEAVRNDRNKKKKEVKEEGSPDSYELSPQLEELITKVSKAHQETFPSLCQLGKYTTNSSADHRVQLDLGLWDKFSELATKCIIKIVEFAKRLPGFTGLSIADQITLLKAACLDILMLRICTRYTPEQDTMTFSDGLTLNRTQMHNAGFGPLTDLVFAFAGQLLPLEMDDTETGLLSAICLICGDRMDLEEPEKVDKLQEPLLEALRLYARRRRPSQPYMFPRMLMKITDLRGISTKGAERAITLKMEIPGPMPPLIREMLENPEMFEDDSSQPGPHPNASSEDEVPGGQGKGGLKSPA
# Source text: as §1, §2
# [4] = system: RARγ-VP-16 chimeric receptor; experiment: Retinoid inverse agonist assay: repression of basal luciferase activity of RARγ-VP-16 chimeric receptor in CV-1 cells; format: cell-based; details: CV-1 cells cotransfected with RARγ-VP-16, ER-RXRα chimeric receptor and ERE-tk-Luc reporter; read-out: IC50, inhibition of basal luciferase activity
# Source text: The activity of retinoid inverse agonists can be tested by the procedure of Klein et al. J. Biol. Chem. 271, 22692–22696 (1996) which is expressly incorporated herein by reference.
# In this assay, retinoid inverse agonists are able to repress the basal activity of a RARγ-VP-16 chimeric receptor where the constituitively active domain of the herpes simplex virus (HSV) VP-16 is fused to the N-terminus of RARγ. CV-1 cells are cotransfected with RARγ-VP-16, an ER-RXRα chimeric receptor and an ERE-tk-Luc chimeric reporter gene to produce a basal level of luciferase activity, as shown by Nagpal et al. EMBO J. 12, 2349–2360 (1933) expressly incorporated herein by reference. Retinoid inverse agonists are able to inhibit the basal luciferase activity in these cells in a dose dependent manner and IC50s measured.
SMILES,Kd [1] [nM],Kd [2] [nM],Kd [3] [nM],IC50 [4] [nM]
"Cc1ccc(C2=CCC(C)(C)c3cc4cccc(-c5ccc(C(=O)O)cc5)c4cc32)cc1 [Compound 2, 4-[1(Tol-4-yl)-3,4-dihydro-4,4-dimethyl-anthracen-8-yl]-benzoic acid]",13,4,7,1
"Cc1ccc(C2=CC(C)(C)Oc3cc4ccc(-c5ccc(C(=O)O)cc5)cc4cc32)s1 [Compound 12, 4-[2,2-Dimethyl-4-(5-methyl-thien-2-yl)-benzo[1,2-g]-chrom-3-en-7-yl]benzoic acid]",17,12,33,
